From PubChem BioAssay (NCI)
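Five compound concentrations were applied to cells in 96-well plates for 48 hours; endpoints were derived by simple linear interpolation of the resulting dose-response curve. TGI marks complete inhibition of growth.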

Key:
Assay in all cases: NCI tumour cell line growth inhibition, 48 h
[1] = test system: DMS 114 small cell lung
[2] = test system: MALME-3M melanoma
[3] = test system: HOP-62 NSCLC
[4] = test system: SK-MEL-2 melanoma
[5] = test system: TK-10 renal
[6] = test system: HCT-15 colon
[7] = test system: NCI-H226 lung
[8] = test system: SW-620 colon
[9] = test system: M14 melanoma
[10] = test system: SF-268 CNS
[11] = test system: HCC-2998 colon
[12] = test system: K-562 leukemia
[13] = test system: HT29 colon
[14] = test system: UACC-257 melanoma
[15] = test system: CAKI-1 renal
[16] = test system: DMS 273 small cell lung
[17] = test system: HL-60(TB) leukemia
[18] = test system: SK-OV-3 ovarian
[19] = test system: NCI-H460 lung
[20] = test system: U251 CNS
[21] = test system: SNB-78 CNS
[22] = test system: LXFL 529 NSCLC
[23] = test system: OVCAR-4 ovarian
[24] = test system: 786-0 renal
[25] = test system: SNB-75 CNS
[26] = test system: UACC-62 melanoma
[27] = test system: A549 NSCLC
[28] = test system: M19-MEL melanoma
[29] = test system: RPMI-8226 leukemia
[30] = test system: KM12 colon
[31] = test system: SF-295 CNS
[32] = test system: ACHN renal
[33] = test system: HCT-116 colon
[34] = test system: HOP-92 NSCLC
[35] = test system: SK-MEL-5 melanoma
[36] = test system: SN12C renal
[37] = test system: RXF 393 renal
[38] = test system: NCI-H522 lung
[39] = test system: CCRF-CEM leukemia
[40] = test system: LOX IMVI melanoma
[41] = test system: COLO 205 colon
[42] = test system: NCI-H23 lung
[43] = test system: IGROV1 ovarian
[44] = test system: A498 renal
[45] = test system: SK-MEL-28 melanoma
[46] = test system: MOLT-4 leukemia
[47] = test system: OVCAR-5 ovarian
[48] = test system: KM20L2 colon
[49] = test system: RXF-631 renal
[50] = test system: SNB-19 CNS
[51] = test system: SF-539 CNS
[52] = test system: UO-31 renal
[53] = test system: OVCAR-3 ovarian
[54] = test system: DLD-1 colon
[55] = test system: MDA-MB-435
[56] = test system: HS 578T breast
[57] = test system: OVCAR-8 ovarian
[58] = test system: MCF7 breast
[59] = test system: MDA-MB-231 breast
[60] = test system: BT-549 breast
[61] = test system: SR leukemia
[62] = test system: MDA-N
[63] = test system: NCI/ADR-RES ovarian
[64] = test system: T-47D breast
[65] = test system: PC-3 prostate
[66] = test system: DU-145 prostate
[67] = test system: EKVX NSCLC
[68] = test system: XF 498 CNS
[69] = test system: HOP-18 NSCLC

O=C(CC1=Nc2nnc(-c3nnc4n3C(=O)C(CC(=O)c3cccnc3)=N4)n2C1=O)c1cccnc1
TGI [1]: > 100 µM
TGI [2]: > 100 µM
TGI [3]: > 100 µM
TGI [4]: > 100 µM
TGI [5]: > 100 µM
TGI [6]: > 100 µM
TGI [7]: > 100 µM
TGI [8]: > 100 µM
TGI [9]: > 100 µM
TGI [10]: > 100 µM
TGI [11]: > 100 µM
TGI [12]: > 100 µM
TGI [13]: > 100 µM
TGI [14]: > 100 µM
TGI [15]: > 100 µM
TGI [16]: > 100 µM
TGI [17]: > 100 µM
TGI [18]: > 100 µM
TGI [19]: > 100 µM
TGI [20]: > 100 µM
TGI [21]: > 100 µM
TGI [22]: > 100 µM
TGI [23]: > 100 µM
TGI [24]: > 100 µM
TGI [25]: > 100 µM
TGI [26]: > 100 µM
TGI [27]: > 100 µM
TGI [28]: > 100 µM
TGI [29]: > 100 µM
TGI [30]: > 100 µM
TGI [31]: > 100 µM
TGI [32]: > 100 µM
TGI [33]: > 100 µM
TGI [34]: > 100 µM
TGI [35]: > 100 µM
TGI [36]: > 100 µM
TGI [37]: > 100 µM
TGI [38]: > 100 µM
TGI [39]: > 100 µM
TGI [40]: > 100 µM
TGI [41]: > 100 µM
TGI [42]: > 100 µM
TGI [43]: > 100 µM
TGI [44]: > 100 µM
TGI [45]: > 100 µM
TGI [46]: > 100 µM
TGI [47]: > 100 µM
TGI [48]: > 100 µM
TGI [49]: > 100 µM
TGI [50]: > 100 µM
TGI [51]: > 100 µM
TGI [52]: > 100 µM
TGI [53]: > 100 µM
TGI [54]: > 100 µM

CCOc1ccc2nc(NC(=O)C(=O)C(C(=O)c3ccccc3-c3ccccc3)C3OC(=O)c4ccccc43)sc2c1 (stereo not drawn)
TGI [1]: 35 µM
TGI [2]: 34.8 µM
TGI [3]: 99.3 µM
TGI [4]: 60.1 µM
TGI [55]: 65.1 µM
TGI [5]: 41.9 µM
TGI [6]: > 62.4 µM
TGI [7]: 21.5 µM
TGI [8]: 60.1 µM
TGI [9]: > 67.2 µM
TGI [10]: 79.5 µM
TGI [11]: 33.1 µM
TGI [12]: > 67 µM
TGI [13]: 43.6 µM
TGI [14]: > 96 µM
TGI [15]: 53.2 µM
TGI [16]: > 100 µM
TGI [17]: 68.7 µM
TGI [56]: > 100 µM
TGI [18]: > 72.6 µM
TGI [19]: 42.7 µM
TGI [20]: 31.7 µM
TGI [57]: 25.7 µM
TGI [21]: > 100 µM
TGI [58]: > 100 µM
TGI [22]: 41.1 µM
TGI [23]: > 100 µM
TGI [24]: 34.6 µM
TGI [25]: 61.6 µM
TGI [26]: 34.8 µM
TGI [59]: 70.8 µM
TGI [27]: > 71.2 µM
TGI [60]: 81.7 µM
TGI [28]: 44.2 µM
TGI [29]: 52.4 µM
TGI [30]: 32.5 µM
TGI [31]: > 93.8 µM
TGI [61]: 43 µM
TGI [62]: 70.9 µM
TGI [32]: > 100 µM
TGI [63]: 37.9 µM
TGI [33]: 33.7 µM
TGI [34]: 46.8 µM
TGI [35]: 31.3 µM
TGI [64]: 60.7 µM
TGI [36]: 51.9 µM
TGI [37]: 18.1 µM
TGI [38]: 32 µM
TGI [39]: 64.2 µM
TGI [65]: 41.7 µM
TGI [40]: 39.4 µM
TGI [41]: 37 µM
TGI [42]: 47.4 µM
TGI [66]: 56.1 µM
TGI [43]: > 68 µM
TGI [44]: 48.1 µM
TGI [45]: 54.2 µM
TGI [67]: 47.5 µM
TGI [46]: 99.6 µM
TGI [68]: 49.1 µM
TGI [47]: > 100 µM
TGI [48]: 54.6 µM
TGI [50]: 36.3 µM
TGI [51]: 36.7 µM
TGI [52]: 52.8 µM
TGI [53]: 89.8 µM
TGI [54]: > 100 µM

CCOc1ccccc1NC(=O)CCC(=O)OC
TGI [1]: > 100 µM
TGI [2]: > 100 µM
TGI [69]: > 100 µM
TGI [3]: > 100 µM
TGI [4]: > 100 µM
TGI [5]: > 100 µM
TGI [6]: > 100 µM
TGI [7]: > 100 µM
TGI [8]: > 60.5 µM
TGI [9]: > 100 µM
TGI [10]: > 100 µM
TGI [11]: > 100 µM
TGI [12]: > 87.8 µM
TGI [13]: > 100 µM
TGI [14]: > 100 µM
TGI [15]: > 100 µM
TGI [16]: > 100 µM
TGI [17]: > 78.8 µM
TGI [18]: > 100 µM
TGI [19]: > 100 µM
TGI [20]: > 71.1 µM
TGI [57]: > 100 µM
TGI [21]: > 100 µM
TGI [22]: > 100 µM
TGI [23]: > 100 µM
TGI [24]: > 100 µM
TGI [25]: > 100 µM
TGI [26]: > 100 µM
TGI [27]: > 100 µM
TGI [28]: > 100 µM
TGI [29]: > 71.3 µM
TGI [30]: > 100 µM
TGI [31]: > 100 µM
TGI [61]: > 100 µM
TGI [32]: > 100 µM
TGI [33]: > 100 µM
TGI [34]: > 100 µM
TGI [35]: > 100 µM
TGI [36]: > 100 µM
TGI [37]: > 100 µM
TGI [38]: > 100 µM
TGI [39]: > 66.7 µM
TGI [40]: > 31.6 µM
TGI [41]: > 100 µM
TGI [42]: > 100 µM
TGI [43]: > 100 µM
TGI [44]: > 100 µM
TGI [45]: > 100 µM
TGI [67]: > 100 µM
TGI [46]: > 100 µM
TGI [68]: > 100 µM
TGI [47]: > 100 µM
TGI [48]: > 100 µM
TGI [50]: > 100 µM
TGI [52]: > 100 µM
TGI [53]: > 100 µM
TGI [54]: > 100 µM
